# Key:
# granulocyte elastase = molecular target: T1, granulocyte elastase (Homo sapiens, UniProt P08246); conditions: cited from earlier work
# T1 sequence (P08246 30-267): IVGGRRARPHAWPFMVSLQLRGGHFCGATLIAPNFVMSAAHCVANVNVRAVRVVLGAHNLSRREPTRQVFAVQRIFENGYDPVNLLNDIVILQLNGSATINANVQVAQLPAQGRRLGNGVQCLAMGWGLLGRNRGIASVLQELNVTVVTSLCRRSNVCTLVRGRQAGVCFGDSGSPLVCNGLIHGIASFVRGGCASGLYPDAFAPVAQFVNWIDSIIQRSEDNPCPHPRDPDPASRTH
# Plasmin = molecular target: T2, Plasmin (Homo sapiens, UniProt P00747); experiment: Protease inhibitory activity assay, plasmin; type: biochemical; conditions: 1 μM inhibitor; plasmin 10 nM; H-D-Val-Leu-Lys-pNA 0.6 mM; 25° C.
# T2 construct: Plasmin (10 nM); purchased Kabi
# Description: H--D--Val--Leu--Lys--pNA
# (§1) Inhibition assays were performed in microtiter wells in a total volume of 300 μl in 10 mM NaCl, 50 mM Tris-HCl (pH 7.4), 0.01% TWEEN80 (Polyoxyethylenesorbitan monoleate). The reactions were incubated at 25° C. for ten minutes after which the appropriate chromogenic substrate was added to the final concentration listed in Table 2 and the final reaction was incubated for thirty minutes at 25° C. Amidolytic activity was measured at 405 nm or by fluorescence Em at 460 nm.
# Trypsin = experiment: Protease inhibitory activity assay, trypsin; type: biochemical; conditions: 1 μM inhibitor; trypsin 8 nM; H-D-Val-Leu-Lys-pNA 0.6 mM; 25° C.
# Description: Trypsin (8 nM) H--D--Val--Leu--Lys--pNA
# as §1
# [1] = molecular target: T3, rec. Protein Ca (activated protein C) (Homo sapiens, UniProt P04070); experiment: Protease inhibitory activity assay, activated protein C; type: biochemical; conditions: 1 μM inhibitor; rec. Protein Ca 5 nM; <Glu-Pro-Arg-pNA 0.6 mM; 25° C.
# T3 construct: purchased Novo Nordisk A/S
# Description: as §1
# r.h. refers to recombinant human, h. refers to human, protein Ca refers t
# activated protein C; APPH refers to the KunitzType inhibitor domain of […]
# kidneys = conditions: in vivo, repeated injections of relatively high doses; rats, rabbits and dogs; cited from earlier work
# Cathepsin G = molecular target: T4, Cathepsin G (Homo sapiens, UniProt P08311); experiment: Protease inhibitory activity assay, cathepsin G; type: biochemical; conditions: 1 μM inhibitor; Suc-Ala-Ala-Pro-Phe-pNA 0.6 mM; 25° C.
# T4 construct: purified at Novo Nordisk A/S; tissue Novo Nordisk A/S (purified there); host or cells: leukocytes (by the cited method)
# T4 sequence (P08311 21-255): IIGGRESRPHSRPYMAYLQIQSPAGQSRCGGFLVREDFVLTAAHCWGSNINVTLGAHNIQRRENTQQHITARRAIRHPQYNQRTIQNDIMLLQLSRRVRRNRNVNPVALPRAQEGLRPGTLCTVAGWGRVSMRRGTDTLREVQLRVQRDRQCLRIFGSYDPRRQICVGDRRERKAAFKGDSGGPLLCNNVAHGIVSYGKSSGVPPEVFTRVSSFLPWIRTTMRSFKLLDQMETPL
# Description: Cathepsin G Suc--Ala--Ala--Pro--Phe--pNA
# (§2) purified at Novo Nordisk A/S
# (0.6 mM) (SEQ ID NO: 19)
# as §1
# Leukocyte Elastase = molecular target: T5, Leukocyte Elastase (Homo sapiens, UniProt P08246); experiment: Protease inhibitory activity assay, leukocyte elastase; type: biochemical; conditions: 1 μM inhibitor; MeO-Suc-Ala-Ala-Pro-Val-pNA 0.6 mM; 25° C.
# T5 construct: purified at Novo Nordisk A/S; tissue Novo Nordisk A/S (purified there); host or cells: leukocytes
# T5 sequence (P08246 30-267): T1 sequence (P08246 30-267)
# Description: MeO--Suc--Ala--Ala--Pro--Val--pNA
# as §2, §1
# [2] = molecular target: T6, PL Kallikrein (plasma kallikrein) (Homo sapiens, UniProt P03952); experiment: Protease inhibitory activity assay, plasma kallikrein; type: biochemical; conditions: 1 μM inhibitor; PL kallikrein 3 nM; H-D-Pro-Phe-Arg-pNA 0.6 mM; 25° C.
# T6 construct: purchased Kabi
# Description: (§3) H--D--Pro--Phe--Arg--pNA
# (§4) Abbreviations in Table 2: rec. refers to recombinant, GL kallikrein refer
# (§5) to glandular kallikrein, and PL kallikrein refers to plasma kallikrein.
# as §1
# human Factor XIa = molecular target: T7, human Factor XIa (Homo sapiens, UniProt P03951); experiment: Protease inhibitory activity assay, Factor XIa; type: biochemical; conditions: 1 μM inhibitor; Factor XIa 1 nM; Boc-Glu(OBzl)-Ala-Arg-MCA 0.12 mM; 25° C.
# T7 construct: human Factor XIa (1 nM); purchased Dr. Kazuo Fujikawa, University of Washington, Seattle, WA
# Description: Boc--Glu(OBzl)--Ala--Arg--MCA
# as §1
# [3] = high doses; cardiac surgery including cardiopulmonary bypass operations; cited from earlier work
# rec. human Factor VIIa = molecular target: T8, rec. human Factor VIIa (Homo sapiens, UniProt P08709); experiment: Protease inhibitory activity assay, Factor VIIa; type: biochemical; conditions: 1 μM inhibitor; Factor VIIa 300 nM; H-D-Ile-Pro-Arg-pNA 0.6 mM; 25° C.
# T8 construct: rec. human Factor VIIa; purchased Novo Nordisk A/S
# T8 sequence (P08709 61-212 limits assumed): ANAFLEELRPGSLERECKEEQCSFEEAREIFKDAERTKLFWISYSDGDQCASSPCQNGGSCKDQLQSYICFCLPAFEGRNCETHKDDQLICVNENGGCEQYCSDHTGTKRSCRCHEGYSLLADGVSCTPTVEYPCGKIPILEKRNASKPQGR
# T8 sequence (P08709 213-466 limits assumed): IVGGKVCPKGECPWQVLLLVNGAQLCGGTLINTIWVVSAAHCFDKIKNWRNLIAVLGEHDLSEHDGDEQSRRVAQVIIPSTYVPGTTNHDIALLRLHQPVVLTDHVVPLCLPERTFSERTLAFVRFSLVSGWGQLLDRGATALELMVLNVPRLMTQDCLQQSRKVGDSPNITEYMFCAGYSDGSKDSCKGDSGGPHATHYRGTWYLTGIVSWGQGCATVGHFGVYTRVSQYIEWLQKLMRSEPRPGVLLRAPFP
# Description: H--D--Ile--Pro--Arg--pNA
# as §1
# Urokinase = molecular target: T9, Urokinase (Homo sapiens, UniProt P00749); experiment: Protease inhibitory activity assay, urokinase; type: biochemical; conditions: 1 μM inhibitor; urokinase 5 nM; <Glu-Gly-Arg-pNA 0.6 mM; 25° C.
# T9 construct: purchased Serono, Freigung, Germany
# Description: as §1
# human Factor Xa = molecular target: T10, human Factor Xa (Homo sapiens, UniProt P00742); experiment: Protease inhibitory activity assay, Factor Xa; type: biochemical; conditions: 1 μM inhibitor; Factor Xa 3 nM; MeO-CO-CHA-Gly-Arg-pNA 0.3 mM; 25° C.
# T10 construct: human Factor Xa (3 nM); purchased Dr. I. Schousboe, Copenhagen, Denmark
# Description: The reactions were incubated at 25° C. for ten minutes after which the appropriate chromogenic substrate was added to the final concentration listed in Table 2 and the final reaction was incubated for thirty minutes at 25° C. Amidolytic activity was measured at 405 nm or by fluorescence Em at 460 nm.
# human Factor XIIa = molecular target: T11, human Factor XIIa (Homo sapiens, UniProt P00748); experiment: Protease inhibitory activity assay, Factor XIIa; type: biochemical; conditions: 1 μM inhibitor; Factor XIIa 30 nM; H-D-Pro-Phe-Arg-pNA 0.6 mM; 25° C.
# T11 construct: human Factor XIIa (30 nM); purchased Dr. Walt Kisiel, University of New Mexico, Albuquerque, NM
# T11 sequence (P00748 20-372 limits assumed): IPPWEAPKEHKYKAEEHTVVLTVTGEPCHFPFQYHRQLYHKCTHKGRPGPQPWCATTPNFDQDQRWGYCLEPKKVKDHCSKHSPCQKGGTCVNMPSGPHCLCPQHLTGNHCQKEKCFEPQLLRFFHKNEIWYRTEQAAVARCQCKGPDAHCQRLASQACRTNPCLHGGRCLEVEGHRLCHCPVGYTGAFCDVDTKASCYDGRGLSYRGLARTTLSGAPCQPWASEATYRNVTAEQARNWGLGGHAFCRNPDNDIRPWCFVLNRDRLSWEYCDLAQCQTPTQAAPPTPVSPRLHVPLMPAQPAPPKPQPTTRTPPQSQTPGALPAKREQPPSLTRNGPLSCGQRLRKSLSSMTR
# T11 sequence (P00748 373-615 limits assumed): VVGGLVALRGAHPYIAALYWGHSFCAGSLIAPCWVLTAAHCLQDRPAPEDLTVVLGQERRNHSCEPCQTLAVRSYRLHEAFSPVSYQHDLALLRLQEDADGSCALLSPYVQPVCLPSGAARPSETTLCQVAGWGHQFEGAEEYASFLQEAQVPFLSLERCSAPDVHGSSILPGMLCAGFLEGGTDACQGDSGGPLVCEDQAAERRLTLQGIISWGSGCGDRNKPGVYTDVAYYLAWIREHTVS
# Description: human Factor XIIa (30 nM)
# as §3, §1
# Chymotrypsin = experiment: Protease inhibitory activity assay, chymotrypsin; type: biochemical; conditions: 1 μM inhibitor; chymotrypsin 2.5 nM; MeO-Suc-Arg-Pro-Tyr-pNA 0.6 mM; 25° C.
# Description: MeO--Suc--Arg--Pro--Tyr--pNA
# as §1
# [4] = tested on: GL Kallikrein (glandular kallikrein); experiment: Protease inhibitory activity assay, glandular kallikrein; type: biochemical; conditions: 1 μM inhibitor; GL kallikrein 1 U/ml; H-D-Val-Leu-Arg-pNA 0.6 mM; 25° C.
# Description: H--D--Val--Leu--Arg--pNA
# as §4, §5, §1
# collagenase = conditions: Wenzel and Tschesche 1981; cited from earlier work
# plasma kallikrein = plasma kallikrein (Homo sapiens, UniProt P03952); conditions: WO 89/10374; cited from earlier work
# Chain of plasma kallikrein (P03952 20-638, species assumed): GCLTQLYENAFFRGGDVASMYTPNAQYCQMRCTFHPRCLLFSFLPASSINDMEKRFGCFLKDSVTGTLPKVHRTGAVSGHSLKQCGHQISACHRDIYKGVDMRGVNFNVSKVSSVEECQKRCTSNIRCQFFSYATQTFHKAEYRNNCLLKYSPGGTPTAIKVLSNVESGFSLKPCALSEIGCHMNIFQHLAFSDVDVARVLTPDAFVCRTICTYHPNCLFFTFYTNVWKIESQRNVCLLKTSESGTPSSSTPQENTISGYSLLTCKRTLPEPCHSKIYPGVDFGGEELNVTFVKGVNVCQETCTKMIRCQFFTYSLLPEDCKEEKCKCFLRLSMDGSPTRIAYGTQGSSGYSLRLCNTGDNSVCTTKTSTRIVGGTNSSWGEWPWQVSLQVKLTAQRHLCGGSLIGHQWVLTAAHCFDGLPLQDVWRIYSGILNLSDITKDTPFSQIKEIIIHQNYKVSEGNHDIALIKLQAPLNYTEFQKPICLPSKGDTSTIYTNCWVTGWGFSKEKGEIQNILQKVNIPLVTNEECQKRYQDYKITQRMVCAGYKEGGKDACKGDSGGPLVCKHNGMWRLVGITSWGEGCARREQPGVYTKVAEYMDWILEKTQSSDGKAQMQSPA
# T2 sequence (P00747 97-580 limits assumed): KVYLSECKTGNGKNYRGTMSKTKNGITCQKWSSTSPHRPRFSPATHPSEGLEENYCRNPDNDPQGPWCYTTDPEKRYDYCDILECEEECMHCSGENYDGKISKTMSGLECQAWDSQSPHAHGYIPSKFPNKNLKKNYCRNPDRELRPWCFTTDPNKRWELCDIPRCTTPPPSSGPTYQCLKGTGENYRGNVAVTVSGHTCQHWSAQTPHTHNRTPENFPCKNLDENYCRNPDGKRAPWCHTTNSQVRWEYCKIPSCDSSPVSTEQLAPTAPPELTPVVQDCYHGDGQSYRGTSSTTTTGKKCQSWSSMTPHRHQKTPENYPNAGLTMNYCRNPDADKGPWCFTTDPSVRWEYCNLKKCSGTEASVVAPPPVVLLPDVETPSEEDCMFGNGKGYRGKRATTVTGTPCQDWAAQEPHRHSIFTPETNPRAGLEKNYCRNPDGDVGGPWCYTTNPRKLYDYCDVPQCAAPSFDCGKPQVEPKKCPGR
# T2 sequence (P00747 581-810 limits assumed): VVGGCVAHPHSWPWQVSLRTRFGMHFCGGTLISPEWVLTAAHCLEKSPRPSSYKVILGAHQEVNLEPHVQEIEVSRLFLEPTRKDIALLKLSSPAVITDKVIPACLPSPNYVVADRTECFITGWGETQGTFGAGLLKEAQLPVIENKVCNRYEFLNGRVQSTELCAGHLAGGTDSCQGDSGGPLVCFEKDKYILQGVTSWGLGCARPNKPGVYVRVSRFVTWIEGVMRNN
# T6 sequence (P03952 20-390 limits assumed): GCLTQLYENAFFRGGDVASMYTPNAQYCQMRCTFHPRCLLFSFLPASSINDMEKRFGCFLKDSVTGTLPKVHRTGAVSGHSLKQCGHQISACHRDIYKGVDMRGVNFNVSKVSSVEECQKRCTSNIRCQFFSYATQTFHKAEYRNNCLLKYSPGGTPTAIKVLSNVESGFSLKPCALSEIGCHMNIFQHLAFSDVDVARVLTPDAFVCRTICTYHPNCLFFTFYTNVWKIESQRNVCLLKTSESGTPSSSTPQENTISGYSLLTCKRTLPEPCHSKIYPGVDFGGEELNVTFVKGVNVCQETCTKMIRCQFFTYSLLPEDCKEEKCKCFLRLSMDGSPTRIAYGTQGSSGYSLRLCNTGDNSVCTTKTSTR
# T6 sequence (P03952 391-638 limits assumed): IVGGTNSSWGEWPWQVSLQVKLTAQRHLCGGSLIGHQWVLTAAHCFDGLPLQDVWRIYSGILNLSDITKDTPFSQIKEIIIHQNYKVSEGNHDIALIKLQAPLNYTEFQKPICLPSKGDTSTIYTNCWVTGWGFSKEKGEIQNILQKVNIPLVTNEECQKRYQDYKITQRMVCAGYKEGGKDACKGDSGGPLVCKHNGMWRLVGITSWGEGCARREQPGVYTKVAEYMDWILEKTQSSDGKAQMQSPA
# T10 sequence (P00742 41-179 limits assumed): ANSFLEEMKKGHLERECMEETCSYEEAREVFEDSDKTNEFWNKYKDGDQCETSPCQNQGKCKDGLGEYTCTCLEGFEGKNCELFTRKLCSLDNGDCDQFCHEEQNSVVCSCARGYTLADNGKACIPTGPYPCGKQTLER
# T10 sequence (P00742 235-488 limits assumed): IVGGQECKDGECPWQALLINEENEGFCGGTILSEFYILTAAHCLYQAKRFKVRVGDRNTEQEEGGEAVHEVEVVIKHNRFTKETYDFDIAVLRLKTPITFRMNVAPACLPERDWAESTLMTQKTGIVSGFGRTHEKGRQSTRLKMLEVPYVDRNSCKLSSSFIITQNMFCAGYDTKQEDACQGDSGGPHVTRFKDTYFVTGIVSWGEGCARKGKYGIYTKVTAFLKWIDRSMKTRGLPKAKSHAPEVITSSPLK
# T7 sequence (P03951 19-387 limits assumed): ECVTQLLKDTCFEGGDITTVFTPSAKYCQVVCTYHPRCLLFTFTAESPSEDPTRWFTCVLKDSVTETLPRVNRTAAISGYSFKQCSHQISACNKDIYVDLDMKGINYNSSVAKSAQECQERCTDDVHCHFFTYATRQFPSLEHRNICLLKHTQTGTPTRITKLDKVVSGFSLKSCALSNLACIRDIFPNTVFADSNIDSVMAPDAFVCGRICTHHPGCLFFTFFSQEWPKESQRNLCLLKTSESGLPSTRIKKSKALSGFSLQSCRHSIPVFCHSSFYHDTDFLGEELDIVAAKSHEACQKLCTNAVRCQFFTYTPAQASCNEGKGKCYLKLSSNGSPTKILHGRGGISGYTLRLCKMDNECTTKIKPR
# T7 sequence (P03951 388-625 limits assumed): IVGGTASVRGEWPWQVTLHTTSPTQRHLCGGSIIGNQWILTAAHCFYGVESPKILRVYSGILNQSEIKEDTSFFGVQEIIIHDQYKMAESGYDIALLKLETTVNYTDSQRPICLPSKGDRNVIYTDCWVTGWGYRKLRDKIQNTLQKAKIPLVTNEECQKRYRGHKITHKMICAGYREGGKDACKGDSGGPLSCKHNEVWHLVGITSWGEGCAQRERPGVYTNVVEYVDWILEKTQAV
# T3 sequence (P04070 43-197 limits assumed): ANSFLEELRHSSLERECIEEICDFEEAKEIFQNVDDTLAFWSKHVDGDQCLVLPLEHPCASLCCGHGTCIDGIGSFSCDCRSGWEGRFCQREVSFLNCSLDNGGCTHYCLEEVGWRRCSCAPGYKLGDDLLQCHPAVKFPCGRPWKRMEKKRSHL
# T3 sequence (P04070 212-461 limits assumed): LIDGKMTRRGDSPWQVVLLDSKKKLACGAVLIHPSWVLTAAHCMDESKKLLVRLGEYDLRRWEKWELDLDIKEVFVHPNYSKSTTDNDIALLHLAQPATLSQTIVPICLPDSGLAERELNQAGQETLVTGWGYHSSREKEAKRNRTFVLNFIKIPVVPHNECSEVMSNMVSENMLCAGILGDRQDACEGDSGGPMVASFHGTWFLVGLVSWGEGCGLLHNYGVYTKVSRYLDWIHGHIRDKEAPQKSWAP
substance,measurement,setting,value
"Aprotinin (1-58, Ala15)",effect on elastase,granulocyte elastase; literature,weak effect
aprotinin [BPTI],"% Inhibition, Plasmin",Plasmin,100%
same,"% Inhibition, Trypsin",Trypsin,100%
same,"% Inhibition, r.h. Protein Ca",[1],38%
same,nephrotoxic effect,kidneys,nephrotoxic effect
same,"% Inhibition, Cathepsin G",Cathepsin G,4%
same,"% Inhibition, Leukocyte Elastase",Leukocyte Elastase,1%
same,"% Inhibition, PL Kallikrein",[2],83%
same,"% Inhibition, h. Factor XIa",human Factor XIa,59%
same,blood loss in connection with cardiac surgery,[3],significantly reduces blood loss
same,"% Inhibition, r.h. Factor VIIa",rec. human Factor VIIa,1%
same,"% Inhibition, Urokinase",Urokinase,1%
same,"% Inhibition, h. Factor Xa",human Factor Xa,1%
same,"% Inhibition, h. Factor XIIa",human Factor XIIa,2%
"APP: amyloid protein precursor Kunitz-type inhibitor domain (Example 2E, SEQ ID NO:17), expressed in yeast (EVCSEQAETGPCRAMISRWYFDVTEGKCAPFFYGGCGGNRNNFDTEEYCMAVCGSA)","% Inhibition, Plasmin",Plasmin,90%
same,"% Inhibition, Trypsin",Trypsin,99.7%
same,"% Inhibition, Chymotrypsin",Chymotrypsin,94%
same,"% Inhibition, Cathepsin G",Cathepsin G,16%
same,"% Inhibition, Leukocyte Elastase",Leukocyte Elastase,6%
same,"% Inhibition, PL Kallikrein",[2],71%
same,"% Inhibition, GI Kallikrein",[4],82%
same,"% Inhibition, Urokinase",Urokinase,0%
"aprotinin (1-58, Val15)",inhibitory effect on collagenase,collagenase,inhibitory effect
same,selectivity for granulocyte elastase,granulocyte elastase; Wenzel and Tschesche 1981,relatively high selectivity
"aprotinin (3-58, Arg15, Ala17, Ser42)",plasma kallikrein inhibitory effect,plasma kallikrein,excellent

# Reference: patent publication US5677146A, “Human amyloid protein precursor homolog and kunitz-type inhibitor” (Zymogenetics, Inc., priority 1995, dated 1997)
